# According to ChEMBL document CHEMBL2073978, “Interactions of n-tetraalkylammonium compounds and biguanides with a human renal organic cation transporter (hOCT2)” (Pharm Res, 2002):
# pIC50: −log10 of the molar value.
# Experiments:
# [1] = molecular target: T1, Solute carrier family 22 member 2 (Homo sapiens, UniProt O15244); assay: (§1) TP_TRANSPORTER: inhibition of Cimetidine uptake (Cimetidine: 1 uM) in Xenopus laevis oocytes; format: functional, cell-based, Oocyte
# T1 sequence (O15244 whole entry): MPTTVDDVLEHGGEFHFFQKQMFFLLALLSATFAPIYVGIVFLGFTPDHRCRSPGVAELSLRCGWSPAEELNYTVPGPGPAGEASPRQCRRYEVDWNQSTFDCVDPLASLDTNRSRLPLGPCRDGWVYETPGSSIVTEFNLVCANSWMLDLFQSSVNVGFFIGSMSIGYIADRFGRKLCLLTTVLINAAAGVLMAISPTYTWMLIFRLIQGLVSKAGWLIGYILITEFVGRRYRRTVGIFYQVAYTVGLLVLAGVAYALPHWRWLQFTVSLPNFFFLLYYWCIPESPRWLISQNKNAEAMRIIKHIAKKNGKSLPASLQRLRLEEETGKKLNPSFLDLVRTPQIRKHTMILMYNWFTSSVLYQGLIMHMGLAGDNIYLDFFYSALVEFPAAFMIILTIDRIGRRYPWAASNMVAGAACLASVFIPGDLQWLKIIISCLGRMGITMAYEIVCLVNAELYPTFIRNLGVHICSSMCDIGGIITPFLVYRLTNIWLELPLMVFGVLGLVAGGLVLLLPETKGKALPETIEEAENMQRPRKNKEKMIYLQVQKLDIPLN
# [2] = molecular target: T2, Solute carrier family 22 member 1 (Homo sapiens, UniProt O15245); assay: as §1; format: functional, cell-based, Oocyte
# T2 sequence (O15245 whole entry): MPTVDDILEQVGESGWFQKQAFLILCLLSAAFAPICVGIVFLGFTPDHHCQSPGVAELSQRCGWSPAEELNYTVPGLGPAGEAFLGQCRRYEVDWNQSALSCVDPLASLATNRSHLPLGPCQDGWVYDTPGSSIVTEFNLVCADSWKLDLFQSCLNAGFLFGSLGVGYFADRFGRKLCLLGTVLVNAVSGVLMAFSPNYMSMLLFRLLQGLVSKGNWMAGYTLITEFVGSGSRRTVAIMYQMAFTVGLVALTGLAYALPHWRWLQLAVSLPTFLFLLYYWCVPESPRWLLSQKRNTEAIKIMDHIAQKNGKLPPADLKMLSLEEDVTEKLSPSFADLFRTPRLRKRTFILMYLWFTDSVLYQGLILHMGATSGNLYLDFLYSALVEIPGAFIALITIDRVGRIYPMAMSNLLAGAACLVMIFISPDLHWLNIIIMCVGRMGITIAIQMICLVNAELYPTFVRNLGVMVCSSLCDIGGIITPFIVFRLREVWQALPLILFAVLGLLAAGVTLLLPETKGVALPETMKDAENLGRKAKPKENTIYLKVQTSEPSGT
# [3] = molecular target: T1, Solute carrier family 22 member 2; format: functional, cell-based, Xenopus laevis, Oocyte
pIC50 [1],pIC50 [2],Compound,pIC50 [3]
2.77,,CN(C)C(=N)N=C(N)N [METFORMIN],
4.19,5.00,[H]/N=C(/N)N/C(=N/[H])NCCc1ccccc1 [PHENFORMIN],
,,CCCC[N+](CCCC)(CCCC)CCCC [TETRABUTHYLAMMONIUM],3.92
,,CCC[N+](CCC)(CCC)CCC [TETRAPROPYLAMMONIUM],3.89
,,CC[N+](CC)(CC)CC [TETRYLAMMONIUM],3.81
